Among the test systems are A549 NSCLC; HL-60(TB) leukemia; HOP-62 NSCLC; MOLT-4 leukemia; NCI-H23 lung; OVCAR-4 ovarian; PC-3 prostate; SK-MEL-28 melanoma; SW-620 colon; UACC-62 melanoma; NCI-H460 lung; RXF 393 renal.
What all share (experiment): growth of human tumour cells (NCI), 48 h

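How tested: cells in 96-well plates exposed to compound for 48 hours at five concentrations. The concentration for 50% growth inhibition is given as GI50. The concentration for full growth arrest is given as TGI.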

As for `COc1ccc2c(c1)CCC1=CC3(CCC12C)SCCS3` (stereo not given), the TGI was > 10 µM in the test on A549 NSCLC; 8.36 µM in the test with HL-60(TB) leukemia; > 10 µM in the test on HOP-62 NSCLC; > 10 µM in the test with MOLT-4 leukemia; > 10 µM in the test with NCI-H23 lung; > 10 µM with OVCAR-4 ovarian. Also, the TGI in the test on PC-3 prostate, in the test on SK-MEL-28 melanoma, with SW-620 colon and in the test on UACC-62 melanoma was > 10 µM in each case.

For `Cn1c2cc(O)cc(O)c2c(=O)c2c([N+](=O)[O-])cccc21`, the TGI with A549 NSCLC, in the test with HL-60(TB) leukemia, in the test with HOP-62 NSCLC, in the test with MOLT-4 leukemia, in the test on NCI-H23 lung and in the test with NCI-H460 lung was > 100 µM each time. The TGI in the test with OVCAR-4 ovarian, in the test with RXF 393 renal, in the test with SK-MEL-28 melanoma, with SW-620 colon and in the test on UACC-62 melanoma was > 100 µM each time.

With `COC(=O)[C@@]12OC[C@]34C([C@@H](O)C1O)[C@@]1(C)CC(=O)C(OC(=O)/C=C(/c5ccccc5)C(F)(F)F)=C(C)C1C[C@H]3OC(=O)[C@H](O)[C@H]42` (stereo not given in full), the TGI in the test on A549 NSCLC was > 50 µM; in the test with HL-60(TB) leukemia, 2.97 µM; with HOP-62 NSCLC, 46.1 µM; in the test on MOLT-4 leukemia it was 26.9 µM; in the test with NCI-H23 lung it was 19.7 µM; in the test with NCI-H460 lung it was 23 µM. Also, the TGI in the test with OVCAR-4 ovarian is > 50 µM; in the test on RXF 393 renal, 45.6 µM; in the test on SK-MEL-28 melanoma, 27 µM; in the test on UACC-62 melanoma, 11.7 µM.

With `COc1cc2c(cc1OC)C(N)CC2=O` (stereo not given), the TGI with A549 NSCLC, in the test on HOP-62 NSCLC, with MOLT-4 leukemia, in the test on NCI-H23 lung, in the test on OVCAR-4 ovarian and in the test with PC-3 prostate was > 100 µM each time. For the same compound, the TGI in the test on RXF 393 renal, with SK-MEL-28 melanoma, with SW-620 colon and in the test with UACC-62 melanoma was > 100 µM in each case.

As for `O=c1cc(-c2ccccc2)oc2cc(OCCSCCCCCCCCCCSCCOc3ccc4c(=O)cc(-c5ccccc5)oc4c3)ccc12`, the TGI in the test with A549 NSCLC, with HL-60(TB) leukemia, in the test on HOP-62 NSCLC, in the test on MOLT-4 leukemia, in the test with NCI-H23 lung and in the test on RXF 393 renal was > 100 µM throughout. Also, the TGI in the test with SK-MEL-28 melanoma, with SW-620 colon and in the test with UACC-62 melanoma was > 100 µM throughout.

Consider `COC(=O)c1ccc(Cc2ccc(C(=O)OC)o2)o1`, for which the TGI in the test on A549 NSCLC, with HL-60(TB) leukemia, with HOP-62 NSCLC, in the test on MOLT-4 leukemia, in the test on NCI-H23 lung and in the test with NCI-H460 lung was > 378 µM in each case. Besides, the TGI in the test with RXF 393 renal, in the test with SK-MEL-28 melanoma, in the test with SW-620 colon and with UACC-62 melanoma was > 378 µM in each case.

`O=c1cc(-c2ccc(Cl)cc2)oc2cc(OCCCOc3ccc4c(=O)cc(-c5ccc(Cl)cc5)oc4c3)ccc12`: the TGI in the test on A549 NSCLC, with HL-60(TB) leukemia, in the test with HOP-62 NSCLC, in the test on MOLT-4 leukemia, in the test with NCI-H23 lung and in the test on NCI-H460 lung was > 100 µM throughout. For the same compound, the TGI in the test with OVCAR-4 ovarian, with RXF 393 renal, in the test with SK-MEL-28 melanoma, with SW-620 colon and with UACC-62 melanoma was > 100 µM in each case.

`O=C(O)CCCOc1cc(-c2ccccc2F)nc2cc3c(cc12)OCO3`: the TGI in the test with A549 NSCLC is > 100 µM; in the test on HOP-62 NSCLC, > 100 µM; in the test with MOLT-4 leukemia it was 71.3 µM; in the test with NCI-H23 lung it was > 100 µM; with OVCAR-4 ovarian, > 100 µM; in the test with PC-3 prostate it was > 100 µM. The TGI with RXF 393 renal, in the test with SK-MEL-28 melanoma, in the test with SW-620 colon and in the test with UACC-62 melanoma was > 100 µM in each case. Moreover, in the test with RXF 393 renal, the GI50 is 7.68 µM.

For `COc1cc2c(cc1OC)C(=O)C(C1=C(SC(=N)N)C(=O)c3cc(OC)c(OC)cc31)C2` (stereo not given), the TGI in the test with A549 NSCLC, in the test on HOP-62 NSCLC, with MOLT-4 leukemia, with NCI-H23 lung, with NCI-H460 lung and with OVCAR-4 ovarian was > 100 µM throughout. Besides, the TGI in the test on SK-MEL-28 melanoma, in the test with SW-620 colon and in the test on UACC-62 melanoma was > 100 µM throughout.

Turning to `COc1cc(/C=C2/C(=O)N(C(=O)c3ccc(Cl)cc3)N=C2C)cc(OC)c1OC`, the TGI with A549 NSCLC, in the test on HL-60(TB) leukemia, with MOLT-4 leukemia, with NCI-H23 lung, with NCI-H460 lung and with OVCAR-4 ovarian was > 100 µM in each case. Further, the TGI with RXF 393 renal, in the test with SK-MEL-28 melanoma, in the test on SW-620 colon and in the test on UACC-62 melanoma was > 100 µM each time.

Regarding `Cc1ccc(O)c(C(=O)CCCC(=O)c2cc(C)ccc2O)c1`, the TGI in the test on HL-60(TB) leukemia, with HOP-62 NSCLC, in the test on MOLT-4 leukemia, in the test with NCI-H23 lung, in the test with NCI-H460 lung and in the test on OVCAR-4 ovarian was > 100 µM throughout. The TGI with SK-MEL-28 melanoma, in the test with SW-620 colon and with UACC-62 melanoma was > 100 µM throughout.

As for `Cc1c2c(n(CCN(C)C)c1C)NN=C(C#N)S2(=O)=O`, the TGI with A549 NSCLC, in the test on HOP-62 NSCLC, in the test on MOLT-4 leukemia, in the test with NCI-H23 lung, in the test with NCI-H460 lung and with OVCAR-4 ovarian was > 100 µM throughout. Further, the TGI in the test on PC-3 prostate, with SK-MEL-28 melanoma, in the test with SW-620 colon and in the test on UACC-62 melanoma was > 100 µM in each case.

As for `COc1c(O)c2c(=O)cc(OC)c3c4c(OC)cc(=O)c5c(O)c(OC)c6c(c(c1C(C(C)=O)C6C(C)O)c23)c54` (stereo not given), the TGI came to 3.06 µM in the test with A549 NSCLC; 0.415 µM with HL-60(TB) leukemia; 0.632 µM in the test on HOP-62 NSCLC; 0.443 µM in the test with MOLT-4 leukemia; 1.33 µM in the test with NCI-H23 lung; 0.688 µM with NCI-H460 lung. For the same compound, the TGI with PC-3 prostate was determined as 0.971 µM; in the test on SK-MEL-28 melanoma, 3.3 µM; in the test on SW-620 colon, 0.469 µM; in the test with UACC-62 melanoma it was 1.01 µM.

These data come from PubChem BioAssay (NCI).
